Molecular target: T1, hTLR9 (Homo sapiens, UniProt Q9NR96)
T1 sequence (Q9NR96 26-1032): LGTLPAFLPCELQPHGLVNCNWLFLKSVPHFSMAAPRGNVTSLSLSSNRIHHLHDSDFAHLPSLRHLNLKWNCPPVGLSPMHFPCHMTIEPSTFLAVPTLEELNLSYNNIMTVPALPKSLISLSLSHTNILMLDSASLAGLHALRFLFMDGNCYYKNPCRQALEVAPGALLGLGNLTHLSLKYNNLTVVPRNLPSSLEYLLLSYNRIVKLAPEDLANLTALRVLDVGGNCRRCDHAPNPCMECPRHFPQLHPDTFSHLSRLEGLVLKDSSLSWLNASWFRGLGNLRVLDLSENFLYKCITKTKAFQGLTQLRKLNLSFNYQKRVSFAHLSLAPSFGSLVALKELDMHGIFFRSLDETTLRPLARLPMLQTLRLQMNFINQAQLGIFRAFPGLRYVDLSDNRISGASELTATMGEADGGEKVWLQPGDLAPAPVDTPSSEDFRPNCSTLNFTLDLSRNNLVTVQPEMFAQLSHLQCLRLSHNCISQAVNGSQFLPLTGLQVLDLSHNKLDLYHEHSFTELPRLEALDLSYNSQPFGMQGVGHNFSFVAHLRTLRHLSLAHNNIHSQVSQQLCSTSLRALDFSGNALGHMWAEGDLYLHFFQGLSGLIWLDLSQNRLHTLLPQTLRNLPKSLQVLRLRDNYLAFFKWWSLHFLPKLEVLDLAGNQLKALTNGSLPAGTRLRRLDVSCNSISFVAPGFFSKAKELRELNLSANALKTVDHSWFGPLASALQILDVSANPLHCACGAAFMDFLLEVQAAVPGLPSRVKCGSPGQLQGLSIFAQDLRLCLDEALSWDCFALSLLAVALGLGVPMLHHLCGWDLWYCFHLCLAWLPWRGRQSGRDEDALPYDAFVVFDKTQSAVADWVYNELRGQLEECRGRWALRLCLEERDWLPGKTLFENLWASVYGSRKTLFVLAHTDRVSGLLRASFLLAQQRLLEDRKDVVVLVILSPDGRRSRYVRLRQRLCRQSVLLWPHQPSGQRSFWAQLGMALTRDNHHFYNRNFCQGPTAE
Assay: HEK293-Blue-hTLR-9 cells assay (SEAP reporter, ODN2006 stimulation)
Assay type: cell-based
Set-up: host or cells: HEK293 (HEK-Blue hTLR9)
Conditions: HEK293-Blue-hTLR9 cells, ODN2006, 20 hrs; read-out: HEK/hTLR9 IC50
How it was run: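 Antagonism read as lowered SEAP reporter absorbance (620–655 nm, QUANTI-Blue, 2 h, 37 °C) in supernatants. Before that, ODN2006-stimulated HEK293-Blue cells stably expressing human TLR9 were exposed to compound dilutions at 1% final DMSO for 20 h at 37 °C.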

SMILES: [2H]c1ccc2c(N3C[C@H](CN4CC(O)(c5ccc(N6CC(C)(N)C6)cc5)C4)O[C@H](C)C3)ccc(C#N)c2n1 [Example 156, 5-[(2S,6R)-2-[[3-[4-(3-amino-3-methyl-azetidin-1-yl)phenyl]-3-hydroxy-azetidin-1-yl]methyl]-6-methyl-morpholin-4-yl]-2-deuterio-quinoline-8-carbonitrile]
- IC50: 0.046 µM

SMILES: [2H]c1ccc2c(N3C[C@H](CN4CCN(c5ccc(N6CC(C)(N)C6)nc5C)CC4)O[C@H](C)C3)ccc(C#N)c2n1 [Example 137, 5-[(2S,6R)-2-[[4-[6-(3-amino-3-methyl-azetidin-1-yl)-2-methyl-3-pyridyl]piperazin-1-yl]methyl]-6-methyl-morpholin-4-yl]-2-deuterio-quinoline-8-carbonitrile]
- IC50: 0.066 µM
